The source made the active and inactive calls. The calls are words filed in the database; no cut-off is given here.

The test system of test [1] is MGC-803. The test can be described thus: Antiproliferative activity against human MGC803 cells after 48 hrs by MTT assay. Format: functional, cell-based. As to conditions: MGC-803, 48 h.
Test [2] has as its system HepG2. Kind of test: cells. As to conditions: Homo sapiens, HepG2, 48 h.
Test [3] has as its system HeLa. Kind of test: cells. To be noted: Homo sapiens, 48 h.
Test [4] has as its system HepG2. The test can be described thus: Upregulation of vimentin protein levels in human HepG2 cells at 2.5 to 10 ug/ml after 48 hrs by Western blot analysis. Format: functional, cell-based.
Test [5] deals with HepG2. Kind of test: Synergistic downregulation of C-myc protein levels in human HepG2 cells at 5 ug/ml after 48 hrs in presence of sorafenib by Western blot analysis. It counts as functional, cell-based.
Test [6] concerns HepG2. Kind of test: Synergistic downregulation of cyclin D1 protein levels in human HepG2 cells at 5 ug/ml after 48 hrs in presence of sorafenib by Western blot analysis. Format: functional, cell-based. For orientation: A western blot detects proteins with antibodies after separation by electrophoresis.
For test [7], the system named is H22. The test can be described thus: Antitumor activity against mouse H22 cells implanted in mouse assessed as tumor growth inhibition at 100 mg/kg, ip or ig qd administered for 10 consecutive days measured after 24 hrs post last dose relative to control. To be noted: read-out: TGI. It counts as functional.
Test [8] has as its system HepG2. Kind of test: Synergistic downregulation of beta-catenin protein levels in human HepG2 cells at 5 ug/ml after 48 hrs in presence of sorafenib by Western blot analysis. It counts as functional, cell-based.
In test [9] the test system is HepG2. Kind of test: Downregulation of Ki67 protein levels in human HepG2 cells after 48 hrs by Western blot analysis. It counts as functional, cell-based.
Test [10] deals with H22. The test can be described thus: Synergistic antitumor activity against mouse H22 cells implanted in mouse assessed as tumor growth inhibition at 50 mg/kg, ip or ig qd administered for 10 consecutive days measured after 24 hrs post last dose in presence of sorafenib relative to control. It counts as functional. As to conditions: read-out: TGI.
In test [11] the test system is HepG2. The test can be described thus: Downregulation of cyclin D1 protein levels in human HepG2 cells after 48 hrs by Western blot analysis. Format: functional, cell-based.
Test [12] relates to HepG2. Kind of test: Synergistic upregulation of vementin protein levels in human HepG2 cells at 5 ug/ml after 48 hrs in presence of sorafenib by Western blot analysis. It counts as functional, cell-based.
In test [13] the test system is H22. Kind of test: Antitumor activity against mouse H22 cells implanted in mouse assessed as tumor growth inhibition at 50 mg/kg, ip or ig qd administered for 10 consecutive days measured after 24 hrs post last dose relative to control. Format: functional. As to conditions: read-out: TGI.
Test [14] has as its system HepG2. Kind of test: Downregulation of C-myc protein levels in human HepG2 cells after 48 hrs by Western blot analysis. It counts as functional, cell-based.
The test system of test [15] is HepG2. Kind of test: Downregulation of beta-Catenin protein levels in human HepG2 cells after 48 hrs by Western blot analysis. Format: functional, cell-based.
Test [16] relates to HepG2. The test can be described thus: Synergistic downregulation of Ki67 protein levels in human HepG2 cells at 5 ug/ml after 48 hrs in presence of sorafenib by Western blot analysis. It counts as functional, cell-based.
For test [17], the system named is H22. The test can be described thus: Antitumor activity against mouse H22 cells implanted in mouse assessed as tumor growth inhibition at 50 mg/kg, ip qd administered for 10 consecutive days measured after 24 hrs post last dose relative to control. Format: functional. As to conditions: read-out: TGI.
The test system of test [18] is HepG2. Kind of test: Upregulation of vimentin protein levels in human HepG2 cells at 4 ug/ml after 48 hrs by Western blot analysis. Format: functional, cell-based.
The test system of test [19] is HepG2. The test can be described thus: Cell cycle arrest in human HepG2 cells assessed as decrease in accumulation of cells at S phase at 4 ug/ml after 48 hrs by propidium iodide staining-based flow cytometric analysis. Format: functional.
Test [20] concerns HepG2. The test can be described thus: Cell cycle arrest in human HepG2 cells assessed as increase in accumulation of cells at G0/G1 phase at 4 ug/ml after 48 hrs by propidium iodide staining-based flow cytometric analysis. It counts as functional. For orientation: A flow cytometer gives signals particle by particle.

As usually defined, the IC50 is the concentration needed to halve the response being measured. Higher therefore signals weaker potency in that assay. Regarding `COc1cc(NC(=O)Nc2ccc(F)cc2)c2c(c1OC(=O)Nc1ccc(F)cc1)-c1c(OC)c(OC)cc3c1[C@H](C2)N(C)CC3`, the 50% inhibitory concentration (IC50) in test [1] is 25.1 µM; in [2], 26.7 µM; in [3], 26.8 µM.

As for `COc1cc(NC(=O)Nc2ccccc2Cl)c2c(c1O)-c1c(OC)c(OC)cc3c1[C@H](C2)N(C)CC3`, the IC50 in [1] worked out at 35.2 µM; in test [2] it was 36.7 µM; in test [3], 36.9 µM.

Take `COC1=CC(=O)c2cc3c4c(cc(OC)c(OC)c4c2C1=O)CCN3C`: the IC50 came out at 49.6 µM in test [1], 40 µM in test [2] and 31.3 µM in test [3].

On to `COc1cc2c3c(c1O)-c1c(ccc(OC)c1OC)C[C@@H]3N(C)CC2` [CORYDINE], for which the IC50 in test [1], in test [2] and in test [3] was greater than 200 µM each time.

Regarding `CCC(=O)NCC1CCN(c2ccc(NC(=O)Nc3cc(OC)c(O)c4c3C[C@H]3c5c(cc(OC)c(OC)c5-4)CCN3C)cc2C(F)(F)F)CC1`, the 50% inhibitory concentration (IC50) came to 20.4 µM in test [1], 20.7 µM in test [2] and 32.5 µM in test [3].

As for `COc1cc(N)c2c(c1O)-c1c(OC)c(OC)cc3c1[C@H](C2)N(C)CC3`, the IC50 in test [1] was found to be 62.1 µM; in [2] it was 51.1 µM; in test [3], 44.1 µM.

On to `COc1cc(NC(=O)c2ccccc2O)c2c(c1O)-c1c(OC)c(OC)cc3c1[C@H](C2)N(C)CC3`, for which the results for the IC50 in [1], in [2] and in test [3] were 56.6 µM, 75.4 µM and 62.1 µM, respectively.

With `COc1cc(NC(=O)Nc2ccc(C(F)(F)F)cc2)c2c(c1OC(=O)Nc1ccc(C(F)(F)F)cc1)-c1c(OC)c(OC)cc3c1[C@H](C2)N(C)CC3`, the concentration for half-maximal inhibition (IC50) in test [1] amounted to 39.3 µM; in test [2], 44.1 µM; in test [3], 47.7 µM.

Consider `COc1cc(NC(=O)Nc2ccc(C)cc2)c2c(c1OC(=O)Nc1ccc(C)cc1)-c1c(OC)c(OC)cc3c1[C@H](C2)N(C)CC3`, for which the figures for the half-maximal inhibitory concentration (IC50) in test [1], in test [2] and in test [3] were 25.6 µM, 16.1 µM and 19.1 µM, respectively.

As for `COc1cc(NC(=O)c2cccnc2)c2c(c1O)-c1c(OC)c(OC)cc3c1[C@H](C2)N(C)CC3`, the values for the IC50 in [1], in test [2] and in test [3] were 34.7 µM, 69.8 µM and 49.6 µM, respectively.

`COc1cc(NC(=O)Nc2ccc(N3CCC(CN)CC3)c(C(F)(F)F)c2)c2c(c1O)-c1c(OC)c(OC)cc3c1[C@H](C2)N(C)CC3`: the IC50 is 11.1 µM in test [1], 7.51 µM in [2] and 6.32 µM in test [3]. Also, the outcome in [4], in test [5], in [6], in test [8], in [12] and in test [16] was Active. Further, in [7], the inhibition in vivo at 100 mg/kg came to 73.8%. In addition, the Activity result in test [9], in test [11], in test [14] and in [15] was “Dose-dependent effect” each time. For the same compound, the inhibition in vivo at 50 mg/kg in test [10] was found to be 66.5%; in test [13], 27.2%.

Consider `COc1cc(NC(=O)Nc2ccc(N3CCC(CNC(=O)OC(C)(C)C)CC3)c(C(F)(F)F)c2)c2c(c1O)-c1c(OC)c(OC)cc3c1[C@H](C2)N(C)CC3`, for which the IC50 in [1] worked out at 23.2 µM; in test [2] it was 18.9 µM; in [3] it was 22.1 µM.

`COc1cc(NC(=O)Nc2ccc(Cl)c(Cl)c2)c2c(c1O)-c1c(OC)c(OC)cc3c1[C@H](C2)N(C)CC3`: the IC50 in [1] amounted to 30 µM; in test [2] it was 28.4 µM; in test [3], 21.7 µM.

For `CNC(=O)c1cc(Oc2ccc(NC(=O)Nc3ccc(Cl)c(C(F)(F)F)c3)cc2)ccn1` [SORAFENIB], the inhibition in vivo at 50 mg/kg in test [17] is 55.8 to 56.5%. Also, the outcome in test [18], in [19] and in [20] was Active. Moreover, the Activity entry in test [9], in test [11], in test [14] and in [15] was “Dose-dependent effect” each time.

In the case of `COc1cc(NC(=O)/C=C/c2ccccc2)c2c(c1O)-c1c(OC)c(OC)cc3c1[C@H](C2)N(C)CC3`, the IC50 was determined as 37.9 µM in [1], 63.4 µM in test [2] and 74.5 µM in test [3].

On to `COc1cc(NC(=O)Nc2ccc(N3CCC(NC(=O)OC(C)(C)C)CC3)c(C(F)(F)F)c2)c2c(c1O)-c1c(OC)c(OC)cc3c1[C@H](C2)N(C)CC3`, for which the concentration for half-maximal inhibition (IC50) in [1] is 28.7 µM; in [2], 25.9 µM; in test [3], 26.7 µM.

Regarding `COc1cc(NC(=O)Nc2ccc(N3CCC(N)CC3)c(C(F)(F)F)c2)c2c(c1O)-c1c(OC)c(OC)cc3c1[C@H](C2)N(C)CC3`, the IC50 is 32.3 µM in [1], 28.6 µM in test [2] and 33.7 µM in test [3].

Consider `COc1ccc2c(c1O)-c1c(OC)c(OC)cc3c1[C@H](C2)N(C)CC3` [ISOCORYDINE], for which the 50% inhibitory concentration (IC50) in test [1], in test [2] and in test [3] was greater than 200 µM throughout.

For `COc1cc2c3c(c1O)-c1c(ccc(O)c1OC)C[C@@H]3N(C)CC2`, the concentration for half-maximal inhibition (IC50) in test [1] was 124 µM; in test [2], 154 µM; in [3], 109 µM.

Take `COc1cc(NC(=O)Nc2ccccc2Cl)c2c(c1OC(=O)Nc1ccccc1Cl)-c1c(OC)c(OC)cc3c1[C@H](C2)N(C)CC3`: the IC50 in test [1] turned out to be 26.9 µM; in [2], 17.2 µM; in test [3], 27.1 µM.

On to `CCC(=O)NC1CCN(c2ccc(NC(=O)Nc3cc(OC)c(O)c4c3C[C@H]3c5c(cc(OC)c(OC)c5-4)CCN3C)cc2C(F)(F)F)CC1`, for which the IC50 came out at 32.5 µM in test [1], 28.5 µM in test [2] and 33.4 µM in test [3].

In the case of `COc1cc(NC(=O)c2cc(Cc3n[nH]c(=O)c4ccccc34)ccc2F)c2c(c1O)-c1c(OC)c(OC)cc3c1[C@H](C2)N(C)CC3`, the IC50 in test [1] is 27.2 µM; in test [2], 30.2 µM; in [3], 29.6 µM.

On to `COc1cc(NC(=O)Nc2ccccc2C)c2c(c1OC(=O)Nc1ccccc1C)-c1c(OC)c(OC)cc3c1[C@H](C2)N(C)CC3`, for which the IC50 was found to be 22.8 µM in test [1], 31.4 µM in [2] and 43.9 µM in test [3].

As to `COc1cc(NC(=O)c2ccc(Cl)c(C(F)(F)F)c2)c2c(c1O)-c1c(OC)c(OC)cc3c1[C@H](C2)N(C)CC3`, the figures for the IC50 in test [1], in [2] and in test [3] were 21.9 µM, 21.5 µM and 16.6 µM, respectively.

`COc1cc(NC(=O)Nc2ccc(C(F)(F)F)cc2)c2c(c1O)-c1c(OC)c(OC)cc3c1[C@H](C2)N(C)CC3`: the half-maximal inhibitory concentration (IC50) was found to be 57.3 µM in test [1], 45.9 µM in test [2] and 49 µM in [3].

`COc1cc(NC(=O)Nc2ccc(SC)cc2)c2c(c1O)-c1c(OC)c(OC)cc3c1[C@H](C2)N(C)CC3`: the figures for the IC50 in test [1], in test [2] and in test [3] were 47.8 µM, 53.2 µM and 46.6 µM, respectively.

For the compound `COc1ccc2c(c1O)-c1c(O)c(OC)cc3c1[C@H](C2)N(C)CC3` [CORYTUBERINE], the half-inhibitory concentration (IC50) in test [1], in test [2] and in test [3] was greater than 200 µM each time.

(Values after ChEMBL document CHEMBL4177667, “Design, synthesis, and anticancer properties of isocorydine derivatives” (Bioorg Med Chem, 2017).)
